Test results taken from patent US4258029A, “Synthetic adjuvants for stimulation of antigenic responses” (Connaught Laboratories Limited, priority 1979, dated 1981).

Assays:
[1] = tested on: tetanus toxoid; parameters: species or system guinea pigs; details: guinea pig, in vivo, sc
[2] = tested on: guinea pigs which had been sensitized to tetanus toxoid; details: guinea pig, in vivo
[3] = tested on: tetanus toxoid; experiment: Tetanus toxoid remaining in supernatant after stirring with octadecyl tyrosine; assay type: physicochemical; details: pH 7.0, 24 hours room temperature
Description: Tetanus toxoid solution (10 ml, 30 Lf/ml, pH 7.0) was placed in a container with a magnetic stirring bar. An ether solution of octadecyl tyrosine (0.3 ml, 30 mg/ml) was added, the mixture stirred rapidly and the ether removed under vacuum. The resulting cloudy solution was stirred at room temperature for 24 hours.
To tetanus toxoid solution (10 ml, 30 Lf/ml, pH 7.0) was added dry octadecyl tyrosine base (10 mg) and the mixture stirred for 24 hours at room temperature.

Molecule | Antibody Units/ml, 4 Weeks [1] [Units/ml] | Antibody Units/ml, 61/2 weeks [1] [Units/ml] | Diameter of skin reaction [2] [mm] | tetanus toxoid in supernatant, Procedure B ([3]; dry base 10 mg added to 10 ml toxoid 30 Lf/ml) | tetanus toxoid in supernatant, Procedure A ([3]; ether solution 0.3 ml, 30 mg/ml added to 10 ml toxoid 30 Lf/ml, after centrifuging)
Tetanus Toxoid | 1.39 ± 0.2 | 7.2 ± 1.2 | 17 ± 1.47 | – | –
CCCCCCCCCCCCCCCCCCOC(=O)[C@@H](N)Cc1ccc(O)cc1 [octadecyl tyrosine] | – | – | – | no detectable tetanus toxoid | no detectable tetanus toxoid
